In publication PMC5201331, “Subchronic Toxicities of HZ1006, a Hydroxamate-Based Histone Deacetylase Inhibitor, in Beagle Dogs and Sprague-Dawley Rats” (International Journal of Environmental Research and Public …, 2016):

Tested on: Beagle dogs
Test: Subchronic toxicity test in Beagle dogs: hematology
Type: in vivo
Conditions: dogs
Protocol: HZ1006 was administered orally to dogs (four/sex/group) at doses of 80, 40, 20, 5 and 0 (control) mg/kg/day, and the dosage volume was 2 mL/kg. The dogs received test doses with the exact amounts on a weekly basis based on current body weights. […] The other dogs in the above groups were dissected on the planned days. For the other groups, half of the dogs were anatomized on d28 and the remaining half on d42.
The following indexes were examined for the dogs used in the study, twice during the pre-dosage period and on d14, d28 and d42. The following parameters were evaluated on d28 and d42 for the rats in the study:
Blood samples of the animals were collected in tubes containing ethylenediamine tetraacetic acid (EDTA) and tested using an ADVIA2120 Hematology Autoanalyzer (Bayer, Leverkusen, Germany). The following indexes were examined: hemoglobin concentration (Hb), red blood cell count (RBC),mean corpuscular volume (MCV), hematocrit (HCT), mean corpuscular hemoglobin concentration (MCHC), mean corpuscular hemoglobin (MCH), white blood cell count (WBC), platelet count (Plt), WBC differential counts [neutrophilcyte (Neu), eosinophilic granulocyte (Eos), basophilic leukocyte (Bas), lymphocyte (Lym), and monocyte (Mon)] and reticulocytes (Ret). The serum coagulation times of the blood samples (1.8-mL samples were mixed with 0.2 mL sodium citrate), including prothrombin time (PT), fibrinogen (FIB), activated partial thromboplastin time (APTT), and thrombin time (TT), were tested using an MC10 plus Blood Coagulation Analyzer from Shanghai San Jose Medical Products Co., Ltd. (Shanghai, China).

[1] = 20 mg/kg/day oral, d42 (recovery)
[2] = 40 mg/kg/day oral, d0 (pre-dose)
[3] = 40 mg/kg/day oral, d42 (recovery)
[4] = 80 mg/kg/day oral, d0 (pre-dose)
[5] = 80 mg/kg/day oral, d42 (recovery)

**Q.** What does the source list for `CCCCCCCNc1cc(/C=C/C(=O)NO)ccc1OCCN(CC)CC` [HZ1006]?
**A.** HGB: Hemoglobin concentration [1]: 128 ± 8 g/L; MON: Monocyte [1]: 5.8 ± 1.0%; RBC: Red blood cell count [1]: 5.96 ± 0.13 ×10^12/L; RET: Reticulocytes [1]: 0.83 ± 0.23%; APTT: Activated partial thromboplastin time [2]: 12.8 ± 0.5 s; FIB: Fibrinogen [2]: 4.84 ± 0.89 g/L; HCT: Hematocrit [2]: 41.7 ± 2.0%; HGB: Hemoglobin concentration [2]: 139 ± 6 g/L; MON: Monocyte [2]: 6.0 ± 1.8%; RBC: Red blood cell count [2]: 6.01 ± 0.31 ×10^12/L; RET: Reticulocytes [2]: 0.86 ± 0.17%; APTT: Activated partial thromboplastin time (40 mg/kg/day oral, d14): 16.8 ± 0.7 s; FIB: Fibrinogen (40 mg/kg/day oral, d14): 7.19 ± 1.58 g/L; HCT: Hematocrit (40 mg/kg/day oral, d14): 35.5 ± 2.6 %; HGB: Hemoglobin concentration (40 mg/kg/day oral, d14): 114 ± 8 g/L; MON: Monocyte (40 mg/kg/day oral, d14): 9.2 ± 5.3%; RBC: Red blood cell count (40 mg/kg/day oral, d14): 5.6 ± 0.36 ×10^12/L; RET: Reticulocytes (40 mg/kg/day oral, d14): 0.13 ± 0.11 %; APTT: Activated partial thromboplastin time (40 mg/kg/day oral, d28): 12.8 ± 0.8 s; FIB: Fibrinogen (40 mg/kg/day oral, d28): 4.93 ± 1.22 g/L; HCT: Hematocrit (40 mg/kg/day oral, d28): 32.8 ± 2.8 %; HGB: Hemoglobin concentration (40 mg/kg/day oral, d28): 105 ± 9 g/L; MON: Monocyte (40 mg/kg/day oral, d28): 11.6 ± 4.5 %; RBC: Red blood cell count (40 mg/kg/day oral, d28): 5.00 ± 0.47 ×10^12/L; RET: Reticulocytes (40 mg/kg/day oral, d28): 0.51 ± 0.22 %; APTT: Activated partial thromboplastin time [3]: 12.9 ± 0.8 s; FIB: Fibrinogen [3]: 4.22 ± 1.25 g/L; HCT: Hematocrit [3]: 39.7 ± 0.1%; HGB: Hemoglobin concentration [3]: 124 ± 1 g/L; MON: Monocyte [3]: 6.4 ± 3.5%; RBC: Red blood cell count [3]: 5.96 ± 0.06 ×10^12/L; RET: Reticulocytes [3]: 0.89 ± 0.65%; APTT: Activated partial thromboplastin time [4]: 13.4 ± 0.6 s; FIB: Fibrinogen [4]: 3.80 ± 0.84 g/L; HCT: Hematocrit [4]: 40.3 ± 3.0%; HGB: Hemoglobin concentration [4]: 134 ± 10 g/L; MON: Monocyte [4]: 5.0 ± 0.8%; RBC: Red blood cell count [4]: 5.92 ± 0.42 ×10^12/L; RET: Reticulocytes [4]: 0.92 ± 0.27%; APTT: Activated partial thromboplastin time (80 mg/kg/day oral, d14): 16.2 ± 3.0 s; FIB: Fibrinogen (80 mg/kg/day oral, d14): 7.06 ± 2.14 g/L; HCT: Hematocrit (80 mg/kg/day oral, d14): 33.4 ± 2.6 %; HGB: Hemoglobin concentration (80 mg/kg/day oral, d14): 107 ± 8 g/L; MON: Monocyte (80 mg/kg/day oral, d14): 19.7 ± 19.7 %; RBC: Red blood cell count (80 mg/kg/day oral, d14): 5.09 ± 0.42 ^##^,* ×10^12/L; RET: Reticulocytes (80 mg/kg/day oral, d14): 0.08 ± 0.12 %; APTT: Activated partial thromboplastin time (80 mg/kg/day oral, d28): 12.5 ± 0.5 s; FIB: Fibrinogen (80 mg/kg/day oral, d28): 6.69 ± 0.62 g/L; HCT: Hematocrit (80 mg/kg/day oral, d28): 26.9 ± 1.7 %; HGB: Hemoglobin concentration (80 mg/kg/day oral, d28): 86 ± 5 g/L; MON: Monocyte (80 mg/kg/day oral, d28): 12.5 ± 2.9 %; RBC: Red blood cell count (80 mg/kg/day oral, d28): 4.17 ± 0.33 ×10^12/L; RET: Reticulocytes (80 mg/kg/day oral, d28): 0.21 ± 0.16 %; APTT: Activated partial thromboplastin time [5]: 12.7 ± 0.9 s; FIB: Fibrinogen [5]: 3.72 ± 2.00 g/L; HCT: Hematocrit [5]: 37.5 ± 3.1%; HGB: Hemoglobin concentration [5]: 126 ± 4 g/L; MON: Monocyte [5]: 5.0 ± 1.9%; RBC: Red blood cell count [5]: 5.71 ± 0.50 ×10^12/L; RET: Reticulocytes [5]: 0.88 ± 0.27%
